In PubChem BioAssay (NCI):
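Test compounds were applied to cells in 96-well plates for 48 hours at 5 doses. GI50 = concentration required for 50% inhibition of growth. TGI denotes the concentration required for complete inhibition of growth.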

Assays:
Assay in all cases: NCI tumour cell line growth inhibition, 48 h
SW-620 colon = tested on: SW-620 colon
M14 melanoma = tested on: M14 melanoma
A549 NSCLC = tested on: A549 NSCLC
OVCAR-8 ovarian = tested on: OVCAR-8 ovarian
T-47D breast = tested on: T-47D breast
OVCAR-5 ovarian = tested on: OVCAR-5 ovarian
EKVX NSCLC = tested on: EKVX NSCLC
HCC-2998 colon = tested on: HCC-2998 colon
SK-MEL-5 melanoma = tested on: SK-MEL-5 melanoma
MOLT-4 leukemia = tested on: MOLT-4 leukemia
UACC-257 melanoma = tested on: UACC-257 melanoma
RXF 393 renal = tested on: RXF 393 renal
COLO 205 colon = tested on: COLO 205 colon
CCRF-CEM leukemia = tested on: CCRF-CEM leukemia
HCT-116 colon = tested on: HCT-116 colon
HS 578T breast = tested on: HS 578T breast
SF-539 CNS = tested on: SF-539 CNS
SN12C renal = tested on: SN12C renal
NCI-H460 lung = tested on: NCI-H460 lung
UO-31 renal = tested on: UO-31 renal
SR leukemia = tested on: SR leukemia
SK-MEL-2 melanoma = tested on: SK-MEL-2 melanoma
SF-295 CNS = tested on: SF-295 CNS
UACC-62 melanoma = tested on: UACC-62 melanoma
DU-145 prostate = tested on: DU-145 prostate
SK-OV-3 ovarian = tested on: SK-OV-3 ovarian
MCF7 breast = tested on: MCF7 breast
A498 renal = tested on: A498 renal

CN(C)c1nc(NCCNS(=O)(=O)c2ccc(C(=O)/C=C/c3ccc(Cl)cc3)cc2)nc(N2CCOCC2)n1
GI50 (SW-620 colon): 8.46 µM | TGI (SW-620 colon): 21.7 µM | GI50 (M14 melanoma): 14.1 µM | TGI (M14 melanoma): 28.3 µM | GI50 (A549 NSCLC): 14.4 µM | TGI (A549 NSCLC): 28.5 µM | GI50 (OVCAR-8 ovarian): 14.8 µM | TGI (OVCAR-8 ovarian): 28.4 µM | GI50 (T-47D breast): 16.7 µM | TGI (T-47D breast): 42.2 µM | GI50 (OVCAR-5 ovarian): 15 µM | TGI (OVCAR-5 ovarian): 28.4 µM | GI50 (EKVX NSCLC): 14.8 µM | TGI (EKVX NSCLC): 28.7 µM | GI50 (HCC-2998 colon): 16.7 µM | TGI (HCC-2998 colon): 30.8 µM | GI50 (SK-MEL-5 melanoma): 16.3 µM | TGI (SK-MEL-5 melanoma): 30.1 µM | GI50 (MOLT-4 leukemia): 3.38 µM | TGI (MOLT-4 leukemia): 80.3 µM | GI50 (UACC-257 melanoma): 16.2 µM | TGI (UACC-257 melanoma): 30 µM | GI50 (RXF 393 renal): 12.8 µM | TGI (RXF 393 renal): 27 µM | GI50 (COLO 205 colon): 16.7 µM | TGI (COLO 205 colon): 34.3 µM | GI50 (CCRF-CEM leukemia): 6.86 µM | TGI (CCRF-CEM leukemia): > 100 µM | GI50 (HCT-116 colon): 11.7 µM | TGI (HCT-116 colon): 24.3 µM | GI50 (HS 578T breast): 15.8 µM | TGI (HS 578T breast): 60.5 µM | GI50 (SF-539 CNS): 14.7 µM | TGI (SF-539 CNS): 27.9 µM | GI50 (SN12C renal): 14.4 µM | TGI (SN12C renal): 27.8 µM | GI50 (NCI-H460 lung): 16.8 µM | TGI (NCI-H460 lung): 33.6 µM | GI50 (UO-31 renal): 11.4 µM | TGI (UO-31 renal): 23.5 µM | GI50 (SR leukemia): 2.52 µM | TGI (SR leukemia): > 100 µM | GI50 (SK-MEL-2 melanoma): 16.6 µM | TGI (SK-MEL-2 melanoma): 30.4 µM | GI50 (SF-295 CNS): 13.3 µM | TGI (SF-295 CNS): 26.4 µM | GI50 (UACC-62 melanoma): 11.4 µM | TGI (UACC-62 melanoma): 23.7 µM | GI50 (DU-145 prostate): 17.2 µM | TGI (DU-145 prostate): 34 µM | GI50 (SK-OV-3 ovarian): 15.3 µM | TGI (SK-OV-3 ovarian): 30.2 µM | GI50 (MCF7 breast): 2.37 µM | TGI (MCF7 breast): 6.39 µM | GI50 (A498 renal): 12.4 µM | TGI (A498 renal): 25.1 µM
